Reference: US20260355196A1, “INHIBITORS AND DEGRADERS OF PIP4K PROTEIN” (Larkspur Biosciences, Inc., priority 2023, published 2026)
Read-outs that look alike come from different tables or passages of the source.

Target: T1, PIP4K2C (Homo sapiens, UniProt Q8TBX8)
T1 sequence (Q8TBX8 1-421): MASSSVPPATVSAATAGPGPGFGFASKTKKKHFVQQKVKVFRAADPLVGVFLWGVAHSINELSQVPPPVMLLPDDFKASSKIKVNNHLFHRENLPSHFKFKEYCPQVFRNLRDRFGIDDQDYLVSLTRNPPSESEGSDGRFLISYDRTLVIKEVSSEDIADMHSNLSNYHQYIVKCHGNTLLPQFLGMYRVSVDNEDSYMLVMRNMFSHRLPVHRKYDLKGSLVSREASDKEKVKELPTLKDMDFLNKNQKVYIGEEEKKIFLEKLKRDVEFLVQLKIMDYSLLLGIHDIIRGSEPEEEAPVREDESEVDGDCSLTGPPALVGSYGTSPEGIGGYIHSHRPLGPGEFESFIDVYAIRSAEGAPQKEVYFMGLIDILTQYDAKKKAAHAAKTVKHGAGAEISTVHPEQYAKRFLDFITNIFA
Test: HiBiT PIP4K2C degradation assay in MOLT-4 cells (endogenous PIP4K2C C-terminally tagged with HiBiT)
Assay type: cell-based
Design: untagged in primary human PBMCs and monocyte-derived dendritic cells
Method in brief: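 MOLT-4 cells with endogenous PIP4K2C C-terminally HiBiT-tagged by CRISPR were treated with a 10-point, 3-fold dilution series from 10 micromolar, in duplicate, for 24 h or 6 h at 37 C. Remaining tagged protein read by HiBiT lytic luminescence; DC50 from Hill-equation fit.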

[1] = 24 hours incubation, MOLT-4, top concentration 10 micromolar; read-out: HiBIT-degradation MOLT4 PIP4k2C 24 hours DC50

SMILES	DC50 [1] [nM]	DC50 (read-out: HiBIT-degradation MOLT4 PIP4k2C 24 hours DC50; 24 hours incubation, MOLT-4, top concentration 10 micromolar) [nM]
Cn1nc(C2CCC(=O)NC2=O)c2ccc(C3CCN(CCC4CCN(C(=O)[C@@H]5CCC[C@H](Nc6ncc(F)c(-c7cccc(-n8ccccc8=O)c7)n6)C5)CC4)CC3)cc21 (stereo partly drawn) [Compound 351, 3-(6-(1-(2-(1-((1R,3S)-3-((5-fluoro-4-(3-(2-oxopyridin-1(2H)-yl)phenyl)pyrimidin-2-yl)amino)cyclohexane-1-carbonyl)piperidin-4-yl)ethyl)piperidin-4-yl)-1-methyl-1H-indazol-3-yl)piperidine-2,6-dione]	< 500	
O=C1CCC(n2c(=O)oc3cc(C4CCN(C5CCN(CCC(=O)N6CCC(Nc7ncc(F)c(-c8cccc(-n9ccccc9=O)c8)n7)CC6)CC5)CC4)ccc32)C(=O)N1 (centres unmarked) [Compound 353, 3-(6-(1′-(3-(4-((5-fluoro-4-(3-(2-oxopyridin-1(2H)-yl)phenyl)pyrimidin-2-yl)amino)piperidin-1-yl)-3-oxopropyl)-[1,4′-bipiperidin]-4-yl)-2-oxobenzo[d]oxazol-3 (2H)-yl)piperidine-2,6-dione]	< 500	
Cc1ccc(=O)n(-c2cccc(-c3nc(N[C@H]4CCC[C@@H](C(=O)N5CCC(CCN6CCC(c7ccc8c(c7)oc(=O)n8C7CCC(=O)NC7=O)CC6)CC5)C4)ncc3F)c2)c1 (stereo partly drawn) [Compound 354, 3-(6-(1-(2-(1-((1R,3S)-3-((5-fluoro-4-(3-(5-methyl-2-oxopyridin-1(2H)-yl)phenyl)pyrimidin-2-yl)amino)cyclohexane-1-carbonyl)piperidin-4-yl)ethyl)piperidin-4-yl)-2-oxobenzo[d]oxazol-3 (2H)-yl)piperidine-2,6-dione]	< 500	
O=C1CCC(n2c(=O)oc3cc(C4CCN(CCC5CCN(C(=O)[C@@H]6CCC[C@H](Nc7ncc(F)c(-c8cccc(N9CCCOC9=O)c8)n7)C6)CC5)CC4)ccc32)C(=O)N1 (stereo partly drawn) [Compound 355, 3-(6-(1-(2-(1-((1R,3S)-3-((5-fluoro-4-(3-(2-oxo-1,3-oxazinan-3-yl)phenyl)pyrimidin-2-yl)amino)cyclohexane-1-carbonyl)piperidin-4-yl)ethyl)piperidin-4-yl)-2-oxobenzo[d]oxazol-3 (2H)-yl)piperidine-2,6-dione]	500 to 1000	
O=C1CCC(n2c(=O)oc3cc(C4CCN(CCC5CCN(C(=O)[C@@H]6CCC[C@H](Nc7ncc(F)c(-c8cccc(N9CCCCC9=O)c8)n7)C6)CC5)CC4)ccc32)C(=O)N1 (stereo partly drawn) [Compound 356, 3-(6-(1-(2-(1-((1R,3S)-3-((5-fluoro-4-(3-(2-oxopiperidin-1-yl)phenyl)pyrimidin-2-yl)amino)cyclohexane-1-carbonyl)piperidin-4-yl)ethyl)piperidin-4-yl)-2-oxobenzo[d]oxazol-3 (2H)-yl)piperidine-2,6-dione]	< 500	
O=C1CCC(n2c(=O)oc3cc(C4CCN(CCC5CCN(C(=O)[C@@H]6CCC[C@H](Nc7ncc(F)c(-c8cccc(-n9cc(C(F)(F)F)ccc9=O)c8)n7)C6)CC5)CC4)ccc32)C(=O)N1 (stereo partly drawn) [Compound 357, 3-(6-(1-(2-(1-((1R,3S)-3-((5-fluoro-4-(3-(2-oxo-5-(trifluoromethyl)pyridin-1(2H)-yl)phenyl)pyrimidin-2-yl)amino)cyclohexane-1-carbonyl)piperidin-4-yl)ethyl)piperidin-4-yl)-2-oxobenzo[d]oxazol-3 (2H)-yl)piperidine-2,6-dione]	< 500	
O=C1CCC(n2c(=O)oc3cc(N4CCC(CN5CCC(CC(=O)N[C@H]6CC[C@H](Nc7ncc(F)c(-c8cccc(-n9ccccc9=O)c8)n7)CC6)CC5)CC4)ccc32)C(=O)N1 (stereo partly drawn) [Compound 358, trans-2-(1-((1-(3-(2,6-dioxopiperidin-3-yl)-2-oxo-2,3-dihydrobenzo[d]oxazol-6-yl)piperidin-4-yl)methyl)piperidin-4-yl)-N-(4-((5-fluoro-4-(3-(2-oxopyridin-1(2H)-yl)phenyl)pyrimidin-2-yl)amino)cyclohexyl)acetamide]	< 500	
O=C1CCC(n2c(=O)oc3cc(C4CCN(CC5CCN(CC(=O)N[C@H]6CC[C@H](Nc7ncc(F)c(C8CCCN(C(=O)C9CC9)C8)n7)CC6)CC5)CC4)ccc32)C(=O)N1 (stereo partly drawn) [Compound 359, trans-N-(4-((4-(1-(cyclopropanecarbonyl)piperidin-3-yl)-5-fluoropyrimidin-2-yl)amino)cyclohexyl)-2-(4-((4-(3-(2,6-dioxopiperidin-3-yl)-2-oxo-2,3-dihydrobenzo[d]oxazol-6-yl)piperidin-1-yl)methyl)piperidin-1-yl)acetamide]		< 500
O=C1CCC(n2c(=O)oc3cc(N4CCC(CN5CCN(CC(=O)N[C@H]6CC[C@H](Nc7ncc(F)c(-c8cccc(-n9ccccc9=O)c8)n7)CC6)CC5)CC4)ccc32)C(=O)N1 (stereo partly drawn) [Compound 360, 2-(4-((1-(3-(2,6-dioxopiperidin-3-yl)-2-oxo-2,3-dihydrobenzo[d]oxazol-6-yl)piperidin-4-yl)methyl)piperazin-1-yl)-N-(trans-4-((5-fluoro-4-(3-(2-oxopyridin-1(2H)-yl)phenyl)pyrimidin-2-yl)amino)cyclohexyl)acetamide]	< 500	
O=C1CCC(n2c(=O)oc3cc(C4CCN(CC5CCN(CC(=O)N[C@H]6CC[C@H](Nc7ncc(F)c(-c8cccc(N9CCCOC9=O)c8)n7)CC6)CC5)CC4)ccc32)C(=O)N1 (stereo partly drawn) [Compound 362, trans-2-(4-((4-(3-(2,6-dioxopiperidin-3-yl)-2-oxo-2,3-dihydrobenzo[d]oxazol-6-yl)piperidin-1-yl)methyl)piperidin-1-yl)-N-(4-((5-fluoro-4-(3-(2-oxo-1,3-oxazinan-3-yl)phenyl)pyrimidin-2-yl)amino)cyclohexyl)acetamide]	< 500	
O=C1CCC(n2c(=O)oc3cc(C4CCN(CC5CCN(CC(=O)N[C@H]6CC[C@H](Nc7ncc(F)c(-c8cccc(N9CCOC9=O)c8)n7)CC6)CC5)CC4)ccc32)C(=O)N1 (stereo partly drawn) [Compound 363, trans-2-[4-[[4-[3-(2,6-dioxo-3-piperidyl)-2-oxo-1,3-benzoxazol-6-yl]-1-piperidyl]methyl]-1-piperidyl]-N-[4-[[5-fluoro-4-[3-(2-oxooxazolidin-3-yl)phenyl]pyrimidin-2-yl]amino]cyclohexyl]acetamide]	< 500	
O=C1CCC(Nc2ccc(C3CCN(CC4CCN(CC(=O)N5CCC(Nc6ncc(F)c(-c7cccc(-c8ccc[nH]c8=O)c7)n6)CC5)CC4)CC3)c(F)c2)C(=O)N1 (centres unmarked) [Compound 364, 3-((3-fluoro-4-(1-((1-(2-(4-((5-fluoro-4-(3-(2-oxo-1,2-dihydropyridin-3-yl)phenyl)pyrimidin-2-yl)amino)piperidin-1-yl)-2-oxoethyl)piperidin-4-yl)methyl)piperidin-4-yl)phenyl)amino)piperidine-2,6-dione]	< 500	
O=C1CCC(Nc2ccc(C3CCN(CC4CCN(CC(=O)N[C@H]5CC[C@H](Nc6ncc(F)c(-c7cccc(-c8ccc[nH]c8=O)c7)n6)CC5)CC4)CC3)c(F)c2)C(=O)N1 (stereo partly drawn) [Compound 365, trans-2-(4-((4-(4-((2,6-dioxopiperidin-3-yl)amino)-2-fluorophenyl)piperidin-1-yl)methyl)piperidin-1-yl)-N-(4-((5-fluoro-4-(3-(2-oxo-1,2-dihydropyridin-3-yl)phenyl)pyrimidin-2-yl)amino)cyclohexyl)acetamide]	< 500	
O=C1CCC(n2c(=O)oc3cc(C4CCN(CC5CCN(C(=O)CN6CCC(Nc7ncc(F)c(-c8cccc(-c9ccccc9)c8)n7)CC6=O)CC5)CC4)ccc32)C(=O)N1 (centres unmarked) [Compound 366, 3-(6-(1-((1-(2-(4-((4-([1,1′-biphenyl]-3-yl)-5-fluoropyrimidin-2-yl)amino)-2-oxopiperidin-1-yl)acetyl)piperidin-4-yl)methyl)piperidin-4-yl)-2-oxobenzo[d]oxazol-3 (2H)-yl)piperidine-2,6-dione]	< 500	
